In US6794398B1, “Preventive/remedies for liver diseases” (Mitsubishi Pharma Corporation, priority 1999, dated 2004):

How the values were obtained:
[1] = tested on: Hepatic stellate cells (HSC); test: Effect on cell morphology of hepatic stellate cell; type: cell-based, rat; details: Y-27632 30 μM, DMEM with 1% FCS, one hour, phase contrast microscope
Protocol: Hepatic stellate cells (HSC) were prepared from the liver of male Wistar rat according to the method of Friedman et al (Friedman S. L, et al., Proc Natl Acad Sci USA 1985; 82: 8681-8685). HSC were cultured in Dulbecco's modified Eagle's medium (DMEM) containing 20% fetal calf serum (FCS) and the cells after 3 to 8 passages were used. HSC to be subjected to the experiment were sown in a dish treated with fibronectin (10 μg/ml), cultured in DMEM medium containing 20% FCS for 24 hours and changed to DMEM medium containing 1% FCS or DMEM medium containing Y-27632 (30 μM) and 1% FCS. One hour later, HSC were fixed with a 3.7% formaldehyde solution and observed under a phase contrast microscope.

[2] = tested on: Hepatic stellate cells (HSC); test: Effect on production of collagen I in hepatic stellate cells (ELISA); type: cell-based, rat; details: Y-27632 30 μM, DMEM without FCS, 48 hours of culture, n=4
Protocol: In the same manner as in Experimental Example 1, HSC were prepared from rat liver and cultured in DMEM medium containing 20% FCS for 8 days and changed to DMEM medium without FCS or DMEM medium containing Y-27632 (30 μM) but without FCS. After 48 hours of culture, the amount of collagen I contained in the supernatant was measured by ELISA (enzyme-linked immunosorbent assay) (Moshage H, et al., Hepatology 1990; 12: 511-518). As a result, the amount was 19.5±3.0 μg/μg DNA for the group without Y-27632 and 8.2±2.3 μg/μg DNA for the group with the addition of Y-27632, showing a significant low level for the group with the addition of Y-27632 (p<0.01, n=4).

[3] = tested on: rat with hepatic fibrosis induced by dimethylnitrosamine; test: Effect on rat with hepatic fibrosis induced by dimethylnitrosamine; type: in vivo; details: 30 mg/kg orally every day for 4 weeks, male Wistar rats, liver, 5 rats
Protocol: 1% Dimethylnitrosamine (100 μl/100 g rat body weight) was intraperitoneally administered to male Wistar rats for 3 consecutive days per week for 4 weeks (12 times in total) to prepare a hepatic fibrosis model rat. To the Y-27632 administration group, Y-27632 (30 mg/kg) was orally administered every day for 4 weeks from the day when the dimethylnitrosamine administration was started. To the control group, physiological saline was administered. Four weeks later, the liver was removed and the level of fibrogenesis of the tissue, collagen content and hydroxyproline amount were measured.
The level of fibrogenesis was measured as follows. A part of the removed liver was fixed with a formalin solution overnight, and a paraffin embedded piece was prepared and stained by Masson trichrome stain. The stained images were input in a computer through a digital camera (Fujix HC-1000, Fuji Film, Tokyo, Japan) and, using a computer-assisted morphometric analyzer (MacScope, Mitani corporation, Fukui, Japan), the area ratio of the collagen portion stained in bright green was determined as the degree of fibrogenesis.
The amout of tissue collagen was measured as follows according to the method of Shiba et al. (Shiba M, et al. Liver, 1998, Jun; 18(3): 196-204). That is, a part of the removed liver was homogenized with a 33-fold amount (ml/g) of 0.5M aqueous acetic acid solution in a Polytron PCU-2 homogenizer (Kinematica, Luzern, Switzerland). The homogenate was subjected to ultrasonication treatment for 2 min after freeze-thawing. After extraction with an acid, a fraction containing insoluble collagen was heated at 80° C. for 60 minutes to convert the insoluble collagen to water-soluble gelatin. The amount of gelatin was measured with a Sircol collagen assay kit (Biocolor, Belfast, Northern Ireland).
The amount of hydroxyproline was measured as follows. […] The amount of hydroxyproline was measured according to the method of Fujiwara et al. (Fujiwara et al., Anal. Biochem., 1987; 166: 72-8) with a high performance liquid chromatography system (SRL Inc., Tachikawa, Japan).

C[C@@H](N)[C@H]1CC[C@H](C(=O)Nc2ccncc2)CC1 [Compound Y-27632, (+)-trans-4-(1-aminoethyl)-1-(4-pyridylcarbamoyl)cyclohexane 2HCl·H2O]
cell morphology of hepatic stellate cells [1]: spindle-like shape with dendroidal protrusions (non-active type) | amount of collagen I contained in the supernatant [2]: 8.2±2.3 μg/μg DNA | content of collagen in the tissue [3]: 601.3±67.7 μg/100 mg-rat liver weight | content of hydroxyproline in the tissue [3]: 29.8±9.1 μmol/g-rat liver weight | level of fibrogenesis (area ratio of collagen portion, Masson trichrome stain) [3]: 6.3±0.7%
